# Patent publication US6469027B1, “N-methyl-D-aspartate (NMDA) receptor blockers for the prevention of atherosclerosis” (The Board of Regents of the University of Nebraska, priority 1996, dated 2002)
# Entries after “also recorded” stand apart in the source; their conditions may differ. Where two headings read alike, the source gives them in different places.
# Key:
# c-myb [1] = test: c-myb expression in N-VSMC (RT-PCR, immunoprecipitation and western blot); format: cell-based, chicken; conditions: for effect on homocysteine-induced c-myb induction: 200 μM H[cys], 50 μM Mk-801 or 1 mM CGS19755, 24 hours
# Method: FIGS. 3A, 3B and 3C are RNA blot analyses of c-fos and c-myb mRNA isolated from N-VSMC cultures. Cultures were incubated in the absence and presence of 200μM H[cys] for 0, (lane 1); 15 min, (lane 2); 30 min, (lane 3); 45 min, (lane 4) and 60 min, (lane 5); and analyzed for c-fos expression. In FIG. 3B, the time course of c-myb MRNA induction in the presence of 200μM H[cys] for 0 h, (lane 1); 8 h, (lane 2); 16 h, (lane 3); 24 h, (lane 4). The c-fos transcripts were analyzed by northern blot and normalized to β actin expression. The amount of c-myb mRNA levels were normalized to estrogen receptor (ER) transcripts as determined by RT-PCR. […] The amount of c-myb mRNA levels were normalized to estrogen receptor (ER) transcripts as determined by RT-PCR. The amount of specific radiolabeling in the autoradiograph was quantified by scanning densitometry. The size of the c-Myb protein is 75 kilodaltons. The 75 kilodalton band is defined as c-Myb because immunoprecipitation of this protein was not detected in the presence of synthetic polypeptide [[…] encoded by sequences 1080-1133].
# FIG. 4 is a graph illustrating the analysis of c-myb synthesis in response to NMDA receptor antagonist, Mk-801 and CGS19755. Immunoprecipitation and western blotting of radiolabeled c-Myb from N-VSMC treated with 200μMH[cys] in the presence and absence of 50 μM Mk-801 or 1 mM CGS19755. Cell cultures were treated with and without H[cys] for 24 hours, extracts were immunoprecipitated with anti c-myb IgG and samples were separated by SDS-PAGE gels and western blotted. The amount of specific radiolabeling in the autoradiograph was quantified by scanning densitometry. The size of the c-Myb protein is 75 kilodaltons. The 75 kilodalton band is defined as c-Myb because immunoprecipitation of this protein was not detected in the presence of synthetic polypeptide [I13-[…] encoded by sequences 1080-1133].
# RNA Blot Analysis: Total RNA was isolated from VSMC derived from thoracic and abdominal aorta by homogenization, and lysis with guanidinium isothiocyanate was followed by phenol-chloroform extraction. Ten micrograms of total RNA per lane was separated in a 1.5% agarose-formaldehyde gel, and the RNA was transferred by capillary transfer to a 0.45 μm nylon membrane. Filters were hybridized as previously with cDNAs labeled with [^32P]deoxycytidine5′-triphosphate to specific activities of approximately 2×10^9 cpm/μg using a random prime labeling kit (Boehringer Mannheim Biochemicals, Indianapolis, Ind.). The probes included chicken c-fos, Bactin, estrogen receptor (ER) and c myb.
# Reverse Transcriptase-Polymerase Chain Reaction: Reverse transcription of 4 to 10,000 nanograms (ng) of RNA using 10 picomoles (pm) of hexamer primers was performed for 90 minutes (min) at 37° C. using 200 units superscript reverse transcriptase (Gibco BRL), in 50 mM Tris, pH, 8.2, 75 Mm KC1, 3 mM MgCl2, 10 mM dithiothreitol (DTT), 1 unit/μ1 RNasin (Promega), and 1 mM each of DATP, dCTP, dGTP, and dTTP. The samples were heated at 95° C. for 5 min to terminate the reverse transcription. The resulting cDNA was treated with 1 unit of […] at 37° C. for 20 min. A 5% fraction of the cDNA was subjected to PCR using c-myb upstream (5′ggTCCTTTgAAgATgCTgCC3′) and downstream(5′[…]gAgTCCgggTTg3′) primers; estrogen receptor (ER) (5′ggACTgCCAgCTgCCgATCTT3′) and (5′CTCACgAATgTggCgCCT3′) primers; β actin (5′AAgAggTAATCCTgACCCCTgAA3′) and (5′ACCCTgACCATCAgggAgTTCA3′) primers. PCR was performed using 0.25 μM of each primer, 3 μM cDNA, 0.2 mM of each deoxynucleotide triphosphate, 75 mM KC1, 1.5 mM MgCl2 and 0.5 unit Taq polymerase (Perkin Elmer; Cetus) in 10 mM Tris-HC1, pH 8.3 with total volume of 100 μl. […] PCR products were analyzed by electrophoresis in 1.5% agarose gels stained with ethidium bromide. PCR amplifications of all target templates and controls were run in parallel or on the same sample. […]
# N-VSMC [2] = test: Cell proliferation (cell number) of N-VSMC cultures; format: cell-based, chicken; conditions: for effect on increase in cell number in the presence of H[cys]: 1% FBS and 100 μM H[cys]; for cell damage after treatment for ten days: low levels of PKC inhibitors, growth after removal
# Method: FIGS. 5A and 5B are graphs illustrating cell growth and DNA synthesis of N-VSMC cultures. (A) Cells were cultured in M199 supplemented with 1% FBS in the presence and absence of 100 μM H[cys]. The medium was renewed every three days and cell numbers were determined by Coulter counter or emocytometer. Each point represents the mean of quadruplicate samples counted six times. (B) Cells were grown to confluency, growth arrested in M199 and 1 μg/ml of bovine serum albumin for two days. Cultures were exposed to various concentrations of H[cys] (0.01-1000 μM) for 30 h, pulse labeled for 6 h with 2 μCi/ml of [^3H]thymidine. The amount of [^3H]thymidine incorporation was determined by scintillation spectrophotometry. Results are shown as the mean of ±S.E.M.
# FIGS. 7A-7C are graphs illustrating the effect of H[cys] on diacylglycerol content in N-VSMC. (A) Time course of changes of membrane diacylglycerol content cell treated with 100μM H[cys] for the various times. Cells were recovered, membrane lipids extracted and diacylglycerol amounts determined as described in Methods. Results are expressed as the mean ± standard error of quadruplicate incubations from six independent experiments. (B) Effects of varying concentrations of H[cys] on diacylglycerol synthesis. Cells were treated for 30 min with different concentrations of H[cys] and membrane lipids were isolated and the diacylglycerol content determined. (C) Effect of PKC inhibitors on H[cys] mediated cell proliferation. N-VSMC cultures were grown in 1% FBS and 100 μM H[cys] in the presence and absence of staurosporine and cheleyrithrine chloride for the times (days-d) indicated. Cells were counted in quadruplicate in a Coulter counter every three days. Values represent the mean ±S.D. from four independent experiments.
# (§1) Smooth Muscle Culture: The thoracic (N) and abdominal (M) aorta of normal 16 and 18-day embryos were cleaned of fat, and the intima-media was isolated from the adventitia. The intima-media was enzymatically dispersed into a single cell suspensions by a combination of collagenase and elastase followed by trypsin. VSMC were placed in primary culture at a constant density of 2×10^4 cells/cm^2 in multiwell plates or 100 mm culture plates in Medium 199 supplemented with 10% fetal bovine serum (FMS) and 2 mM glutamine, in an atmosphere of 95% air: 5% Co2 at 37° C. Primary cultures were grown for 7 days before they were seeded into first passage at the same cell density and grown to confluence. Experiments were carried out between passages 3-6. Experimental conditions for all cells included 48 h in Medium 199 supplemented with 1% FBS prior to initiating and experiment.
# TA-VSMCs = test: [3H]thymidine labeling (DNA synthesis) in TA-VSMCs; format: cell-based
# From the text: Effect of calcium channel activation on DNA synthesis. Effect of glutamate receptor calcium channels and L-type calcium channels activation was examined by measuring [^3H]thymidine labeling.
# c-myb [3] = test: c-myb expression in TA-VSMCs; format: cell-based; conditions: NMDA receptor blockers
# [4] = high doses; cited from earlier work
# [5] = tested on: Thoracic aorta VSMC from E14 embryos; test: Intracellular Ca++ by Fura 2 fluorometry; format: cell-based, chicken; conditions: 15 min pretreatment
# Method: FIGS. 8A and 8B are graphs illustrating E14 embryonic neural crest-derived response to Hcy. (A) Normal E14 cell response; (B) Ca++ influx is prevented by 15 min pretreatment with NMDA receptor blocker MK801, which acts at the NMDA receptor calcium channel.
# The most common signaling device for mitosis is calcium influx. Therefore, the inventors measured the change in intracellular Ca^++ by Fura 2 fluorometry. Thoracic aorta VSMC from E14 embryos were harvested and grown on coverslips using the procedure set forth above. Fura 2 was added during 45 minutes at room temperature. Then the cover slips were placed in a photometer. Fura 2 was excited at 350 and 380 nm with a xenon light source, appropriate monochromators and a chopper (Deltascan, Princeton). Emitted signals passed through a 510±20 band pass filter. When the cells were treated with a solution of 200 μM Hcy, there was a rapid flux of Ca^++ that reached a plateau in about 50 seconds, and remained elevated for the duration of the 500 sec measurement interval as shown in FIGS. 8A and 8B. Similar results have been found with adult rabbit aortic smooth muscle cells, as set forth below.
# N-VSMC [6] = test: [3H]thymidine incorporation (DNA synthesis) in N-VSMC cultures; format: cell-based, chicken
# Method: FIG. 1 is a graph illustrating homocysteine's effects on the growth of VSMC cultures. Confluent N-VSMC cultures were growth arrested by incubating cells with M199 medium containing 1 μg/ml BSA for 48 h, exposed to various concentrations of H[cys] (0.01-4000μM) for 30 h, pulse labeled for 6 h with 2 μCi/ml [^3H]-thymidine, and cell monolayers were washed twice with cold (0° C.) 10% trichloroacetic acid (TCA). The amount of [^3H]-thymidine incorporation was determined by scintillation spectrophotometry. Results are shown as the means of ±S.D.
# FIGS. 2A-2C are graphs illustrating the effects of glutamate, homocysteic acid and NMDA on DNA synthesis in N-VSMC. N-VSMC were cultured and serum-deprived as described in “Experimental Procedures.” Cultures were treated with various concentrations of homocysteic acid (2A), NMDA (2B), or L-glutamate (2C) for 30 and pulsed 6h with [^3H] thymidine. All values are expressed as ±S.D. of six independent experiments completed in quadruplicate.
# as §1
# DNA Synthesis: Growth factors were added directly to quiescent VSMCs in Medium 199 as described above. The cells were pulsed between 4-6 h with a final concentration of 2-5 μCi/ml [^3H]thymidine added at the times and for the periods indicated in the figure legends. The cells were washed, and the incorporation of [^3H]thymidine into acid insoluble material was determined as previously described. Den-Heijer, M. et al. (1996), Hyperhomocystinemia as a risk factor for deep-vein thrombosis. N. Eng. J. Med. 334(12):759-762.
# VSMC = conditions: low concentrations
smiles,measurement,setting,value
O=C(O)[C@@H]1C[C@H](CP(=O)(O)O)CCN1 [CGS 19755],effect on homocysteine-induced c-myb induction,c-myb [1],blocked
same,effect on homocysteine-induced c-myb induction,c-myb [1]; listed as CGS19755,block
same,effect on homocysteine-induced cell proliferation,N-VSMC [2],inhibited; also recorded: no increase in cell proliferation
same,effect on homocysteine-induced cell proliferation,N-VSMC [2]; listed as CGS19755,block
same,effect on NMDA and homocysteine DNA synthesis responses,TA-VSMCs,blocked
same,effect on homocysteine effect on c-myb expression,c-myb [3],blocked
COc1ccc2c(c1)[C@]13CCCC[C@@H]1[C@H](C2)N(C)CC3 [dextromethorphan],side effects,[4],"drowsiness, nausea, and decreased coordination"
C[C@]12N[C@H](Cc3ccccc31)c1ccccc12 [MK-801],effect on homocysteine-induced c-myb induction,c-myb [1],completely suppressed; also recorded: block
same,effect on homocysteine-induced cell proliferation,N-VSMC [2],inhibited
same,effect on homocysteine-induced cell proliferation,N-VSMC [2]; listed as Mk-801,block
same,effect on Hcy-induced Ca++ influx,[5],prevented
same,effect on NMDA and homocysteine DNA synthesis responses,TA-VSMCs,blocked
same,effect on homocysteine effect on c-myb expression,c-myb [3],blocked
"N[C@@H](CCC(=O)O)C(=O)O [glutamate, L-glutamate]",activation of the same responses as H[cys],N-VSMC [6],do not significantly activate
same,[3H] thymidine incorporation stimulated,N-VSMC [6]; 10 mM,2 fold
O=C(O)CN(CCOCCOCCN(CC(=O)O)CC(=O)O)CC(=O)O [EGTA],effect on stimulation of DNA synthesis,TA-VSMCs; chelation of extra cellular Ca2+ by addition to the medium,prevented
COc1ccc2c(c[n+](C)c3c4cc5c(cc4ccc23)OCO5)c1OC.[Cl-] [cheleyrthrine chloride],effect on increase in cell number in the presence of H[cys],N-VSMC [2],blocked
same,cell damage after treatment for ten days,N-VSMC [2],did not permanently damage the cells
CCO [ethanol],effect on pharmacological effect of homocysteine in VSMC,VSMC,completely blocked
N[C@@H](CCS(=O)(=O)O)C(=O)O [homocysteic acid],[3H] thymidine incorporation stimulated,N-VSMC [6]; 1 mM,2 fold
"CN[C@H](CC(=O)O)C(=O)O [NMDA, N-methyl D-aspartate acid]",activation of the same responses as H[cys],N-VSMC [6],do not significantly activate
same,[3H] thymidine incorporation stimulated,N-VSMC [6]; 10 mM,2 fold
same,"expression of Myb, agonist per se",c-myb [1]; embryonic smooth muscle cells,did not induce
same,[3H] thymidine increased,TA-VSMCs; incubated with NMDA,2 fold
CN[C@@H]1C[C@H]2O[C@@](C)([C@@H]1OC)n1c3ccccc3c3c4c(c5c6ccccc6n2c5c31)C(=O)NC4 [staurosporine],effect on increase in cell number in the presence of H[cys],N-VSMC [2],blocked
same,cell damage after treatment for ten days,N-VSMC [2],did not permanently damage the cells
